Key:
[1] = biological target: T1, LXRβ (Homo sapiens, UniProt P55055); experiment: TR-FRET coactivator assay (positive control, parent agonist); format: binding
T1 construct: gene NR1H2
T1 sequence (P55055 1-460): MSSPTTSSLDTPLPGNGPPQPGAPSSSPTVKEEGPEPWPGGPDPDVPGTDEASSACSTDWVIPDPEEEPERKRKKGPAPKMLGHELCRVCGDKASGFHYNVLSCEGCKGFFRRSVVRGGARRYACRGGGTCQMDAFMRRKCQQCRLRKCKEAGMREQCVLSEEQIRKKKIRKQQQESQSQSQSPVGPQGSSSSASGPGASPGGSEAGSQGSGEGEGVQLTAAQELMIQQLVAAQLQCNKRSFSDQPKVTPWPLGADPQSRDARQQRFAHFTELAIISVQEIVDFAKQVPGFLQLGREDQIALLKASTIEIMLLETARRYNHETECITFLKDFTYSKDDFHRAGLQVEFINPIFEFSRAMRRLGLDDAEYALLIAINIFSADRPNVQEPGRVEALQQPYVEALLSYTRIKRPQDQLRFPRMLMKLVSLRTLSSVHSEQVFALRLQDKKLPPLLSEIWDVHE

[2] = biological target: T1, LXRβ; experiment: TR-FRET coactivator assay; format: binding

EC50 [1] [nM] | EC50 [2] [nM] | Compound
20 ± 7.2 | – | O=C(O)Cc1cccc(OCCCN(Cc2cccc(C(F)(F)F)c2Cl)CC(c2ccccc2)c2ccccc2)c1 [GW3965]
– | 31 ± 4.4 | Cc1ncsc1-c1ccc(CNC(=O)[C@@H]2C[C@@H](O)CN2C(=O)[C@@H](NC(=O)COCCOCCOCCOCCOCCNC(=O)Cc2cccc(OCCCN(Cc3cccc(C(F)(F)F)c3Cl)CC(c3ccccc3)c3ccccc3)c2)C(C)(C)C)cc1 [compound 3, GW3965-PEG5-VH032]

— PMC8187946, “Development of Agonist-Based PROTACs Targeting Liver X Receptor” (Frontiers in Chemistry, 2021)
